# Experimental data published in patent US9642897B2, “Treatment of bone diseases” (THE UNIVERSITY OF SYDNEY, priority 2011, dated 2017).
# Entries after “also recorded” stand apart in the source; their conditions may differ.
# Legend:
# RUNX2, OCN and OPN = assay: Osteogenic gene expression (RUNX2, OCN, OPN) in differentiating MSC; format: cell-based, human; details: for relative gene expression of RUNX2, OCN and OPN: differentiating MSC
# Procedure: (§1) Subsequently, the effect of chemical inhibition/stimulation of the intermediate and end products of kynurenine activation on osteogenic differentiating MSC was then characterised.
# These compounds were added to the MSC media on day one of differentiation. […] Media was changed every three days. […]
# [1] = system: gut-derived serotonin (GDS); details: Yadav et al. (2010); cited from earlier work
# [2] = system: mesenchymal stem cells (MSC); assay: Mineralization (alizarin red staining) of osteogenic differentiating MSC; format: cell-based, human
# Procedure: (§2) Human mesenchymal stem cells (MSC) (BioWhittaker, Walkersville, Md., USA) were plated at a density of 5×10^5 cells per well in 150 cm^2 dishes containing MSC growth medium (GM) (BioWhittaker, Walkersville, Md., USA) with 10% fetal calf serum (FCS) and incubated at 37° C. After the cells reached 60% confluence, media was replaced with either GM or osteoblastogenesis induction media (OIM) (prepared with MSCGM, 10% FCS, […] dexamethasone, 10 mmol/L β glycerol phosphate and 50 μg/mL ascorbic acid) for 21 days. Media was changed every three days. Media obtained at the beginning of the 1st, 2nd and 3rd wk of differentiation as well as conditioned media were collected for measurement of IFNγ. Concentrations of IFNγ in the conditioned media were measured from both GM and OM treated cells using Human […] DuoSet ELISA Development Kit (R&D Systems, Minneapolis, Mich., USA). To compare between the osteogenic and the immune effect of IFNγ, Jurkat cells and human T lymphocytes were plated at a density of 5×10^5 cells per well in 150 cm^2 dishes containing RPMI media.
# as §1
# These compounds were added to the MSC media on day one of differentiation. Cells were treated for […]. Media was changed every three days. After three weeks of treatment, osteoblastogenesis and changes in osteogenic genes were quantified as described above.
# [3] = system: bone marrow stromal cells (BMSC) from IDO-1 KO and WT mice; assay: Osteogenic differentiation of BMSC from IDO-1 KO and WT mice (alizarin red); format: cell-based; details: vs vehicle
# Procedure: One side tibiae from 9-month-old IDO-1^−/− and IDO-1^+/+ mice (n=6 per group) were flushed using a 21-gauge needle attached to a 10 ml syringe filled with Dulbecco's modified Eagle's medium (DME) (GIBCO BRL, Gaithersburg, Md., USA). The bone marrow cells were filtered through a cell strainer with a 70-micron nylon mesh (BD Bioscience, Bedford, Mass., USA) and plated in 10 cm^2 tissue culture dishes. The cells were incubated in growth medium at 37° C. with 5% humidified CO2 and isolated by their adherence to tissue culture plastic. Medium was aspirated and replaced with fresh medium every 2 to 3 days to remove non-adherent cells. The adherent MSC were grown to confluency for about 7 days and defined as MSC at passage 0, harvested with 0.25% trypsin and 1 mM EDTA for 5 min at 37° C., diluted 1:3 in growth medium, plated and grown to confluency for further expansion. After 2nd and 3rd passages, MSC were used for subsequent experiments.
# To induce differentiation, a total of 10^4 cells were diluted in osteogenic medium and plated in 24 dishes per group in the presence or absence of either quinolinic or picolinic acid. Media was aspirated and replaced with fresh osteogenic medium every 3 days. At 21 days, medium was removed and cultures were fixed in 10% v/v formol/saline solution for 5 min. Cultures were stained with Alizarin Red, which was then extracted and quantified at 570 nm.
# IDO-1 gene expression [4] = assay: IDO-1 gene expression in osteogenic differentiating MSC (cDNA array / real time PCR); format: cell-based, human; details: for increase in IDO-1 expression: differentiating osteoblasts
# Procedure: as §2
# Cells were treated with either IFNγ (100 nM) or vehicle for two weeks. At week 2, total RNA was extracted from treated MSC, Jurkat T lymphocytes using an Easy-Kit mini prep (Qiagen, Valencia, Calif., USA). Generation of cDNA, fluorescent labeling, hybridization to the gene chip and data analysis were performed by the Genomics Laboratory at Ramacciotti Institute (Sydney, Australia). 12,000 human genes were examined and expressed sequences tags (ESTs) on the array Human Genome U95A (Affymetrix, Inc. Santa Clara, Calif., USA) and analyzed the results using the MicroDB™ Software (Affymetrix, Inc. Santa Clara, Calif., USA). Expression values of the differentiated and non-differentiated MSC and between MSC vs. Jurkat cells and T lymphocytes were compared using Student's t test. Genes with significant changes were then grouped depending on their known function. The biological function of each gene product was obtained from literature searches in medical databases. This experiment was repeated twice and significant changes in gene expression determined by the method of biological duplicates.
# A cDNA gene array analysis was performed in MSC induced to differentiate into osteoblasts using osteogenic media for 7 days while being treated with an anabolic dose of IFNγ (100 nM) in vitro. A comparison of was made of cDNA data obtained from differentiating MSC, human primary T-lymphocytes and Jurkat cells either untreated or treated with IFNγ (FIG. 1). The aims of this approach were not only to characterise the osteogenic effect of IFNγ on osteogenic differentiating MSC, but also to compare the osteogenic vs. the immunogenic profile of IFNγ. […]
# [5] = rats; cited from earlier work
# TPH-1 = assay: Immunohistochemistry of TPH-1 in gut and bone of IFNγ-treated mice; format: in vivo, C57BL/6 mice; details: IFNγ 2,000 IU, 3 times a week for 6 weeks
# Procedure: (§3) Animals were purchased from Jackson Laboratories (Bar Harbor, Me., USA). 8-week-old virgin female C57BL/6 mice (Charles River Laboratories, Quebec, Canada) were used to study the effect of exogenous administration of IFN-γ on bone and gut expression of IDO-1 and TPH-1. Bilateral ovariectomies (OVX) were performed under general anesthesia. Another group of animals was sham-operated (SHAM), in which ovaries were exteriorized but replaced intact. Two weeks after surgery, mice (OVX and SHAM) received intraperitoneal injections of 2000 IU of IFN-γ (R&D Systems, Inc., Minneapolis, Minn., USA) or vehicle (PBS) three times weekly for a total of 6 weeks. Mice were housed in cages in a limited-access room. Animal husbandry adhered to Canadian Council on Animal Care Standards, and all protocols were approved by the McGill University Health Center Animal Care Utilization Committee. […]
# (§4) For immunohistochemistry, gut and bone sections were incubated overnight at 4° C. with a goat polyclonal antibody IgG against either IDO-1 or TPH-1 (Santacruz Biotechnology Inc. Santa Cruz Calif., USA), Primary antibody was detected by incubation with an anti-goat IgG secondary antibody conjugated with horseradish peroxidase (1:300 in BSA 1%, Sigma-Aldrich, St. Louis, Mo., USA)]. […] Photographs were taken under an Olympus fluorescence microscope controlled by an IPLab system. […]
# TPH-1 gene expression = TPH-1 gene expression in IFNγ-treated immune cells (Jurkat cells, T lymphocytes); format: cell-based, human; details: immune cells treated with IFNγ
# Procedure: as §2, with “To compare between the osteogenic and the immune effect of IFNγ, Jurkat cells and human T lymphocytes were plated at a density of 5×10^5 cells per well in 150 cm^2 dishes containing RPMI media.” left out
# (§5) Cells were treated with either IFNγ (100 nM) or vehicle for two weeks. […] 12,000 human genes were examined and expressed sequences tags (ESTs) on the array Human Genome U95A (Affymetrix, Inc. Santa Clara, Calif., USA) and analyzed the results using the MicroDB™ Software (Affymetrix, Inc. Santa Clara, Calif., USA). […] This experiment was repeated twice and significant changes in gene expression determined by the method of biological duplicates. […]
# gut derived serotonin = assay: Gut derived serotonin (GDS) in gut of IFNγ-treated mice; format: in vivo, C57BL/6 mice; details: IFNγ 2,000 IU, 3 times a week for 6 weeks
# Procedure: Animals were purchased from Jackson Laboratories (Bar Harbor, Me., USA). 8-week-old virgin female C57BL/6 mice (Charles River Laboratories, Quebec, Canada) were used to study the effect of exogenous administration of IFN-γ on bone and gut expression of IDO-1 and TPH-1. Bilateral ovariectomies (OVX) were performed under general anesthesia. Another group of animals was sham-operated (SHAM), in which ovaries were exteriorized but replaced intact. Two weeks after surgery, mice (OVX and SHAM) received intraperitoneal injections of 2000 IU of IFN-γ (R&D Systems, Inc., Minneapolis, Minn., USA) or vehicle (PBS) three times weekly for a total of 6 weeks. Mice were housed in cages in a limited-access room. Animal husbandry adhered to Canadian Council on Animal Care Standards, and all protocols were approved by the McGill University Health Center Animal Care Utilization Committee.
# One side femur and proximal gut from each animal in each group was removed at the time of euthanization. Bone was fixed in 70% ethanol, dehydrated, and embedded undecalcified in methyl methacrylate (J-T Baker, Phillipsburg, N.J., USA). At 50-μm intervals, longitudinal sections 5- and 8-μm thick were cut using a Polycut-E microtome (Reichert-Jung Leica, Heerbrugg, Switzerland). Gut was fixed and embedded in paraffin for future analysis. Gut sections were obtained as described above.
# serotonin = assay: Serotonin concentrations in MSC supernatants (ELISA); format: cell-based, human; details: IFNγ treated vs untreated cells
# Description: In addition, there was no difference in the serotonin concentrations (measured using ELISA) in the supernatants obtained from osteoblastogenesis induction media (OIM)- and IFNγ-treated vs. untreated cells. […] This effect is independent of serotonin concentration in the media.
# IDO-1 [6] = assay: Immunohistochemistry of IDO-1 in gut and bone of IFNγ-treated mice; format: in vivo, C57BL/6 mice; details: IFNγ 2,000 IU, 3 times a week for 6 weeks
# Procedure: as §3, §4
# IDO-1 [7] = assay: Kynurenine/tryptophan ratio by HPLC in differentiating MSC; format: cell-based, human; details: MSC treated with IFNγ
# IDO-1 gene expression [8] = assay: IDO-1 gene expression in IFNγ-treated immune cells (Jurkat cells, T lymphocytes); format: cell-based, human; details: immune cells treated with IFNγ
# Procedure: as §2, with “To compare between the osteogenic and the immune effect of IFNγ, Jurkat cells and human T lymphocytes were plated at a density of 5×10^5 cells per well in 150 cm^2 dishes containing RPMI media.” left out
# as §5
# [9] = 1000 nM quinolinic acid, 14 days, vs untreated cells
compound,measurement,setting,value
"Nc1ccccc1C(=O)CC(N)C(=O)O [L-kynurenine, 2-amino-4-(2-aminophenyl)-4-oxo-butanoic acid, reference compound]","relative gene expression of RUNX2, OCN and OPN","RUNX2, OCN and OPN",not
Nc1nc(OC(c2ccc(-c3cccc(F)c3)cc2)C(F)(F)F)cc(-c2ccc(C[C@H](N)C(=O)O)cc2)n1 (stereo partly shown) [LP533401],bone formation / osteoporosis in OVX mice,[1],stimulates bone formation and recues OVX mice from osteoporosis
"O=C(O)c1cccnc1C(=O)O [QA, 2,3-Pyridinedicarboxylic acid]",osteoblastogenesis / mineralisation (alizarin red),"[2]; MSC in OIM, 2 weeks",accelerated mineralisation; also recorded: stimulate osteoblastogenesis
same,mineralisation (alizarin red staining),[3],higher levels of mineralisation
same,relative expression (RE) RUNX2,"RUNX2, OCN and OPN; [9]",3 fold
same,relative expression (RE) osteopontin,"RUNX2, OCN and OPN; [9]",6 fold
same,"relative gene expression of RUNX2, OCN and OPN","RUNX2, OCN and OPN",increased
"CN[C@H](Cc1c[nH]c2ccccc12)C(=O)O [methyl-D-tryptophan, reference compound]",mineralization measured by alizarin red,[2]; inhibition of IDO-1,significant decrease
same,RE of IDO-1,"IDO-1 gene expression [4]; day 14 of differentiation, in the presence of inhibitor, vs control",0.02
same,osteogenic genes expression,"RUNX2, OCN and OPN; with IDO-1 inhibition",reduced
CC[C@H](C)[C@H](NC(=O)[C@H](CCC(=O)O)NC(=O)[C@H](CO)NC(=O)[C@@H](NC(=O)[C@@H](N)CO)C(C)C)C(=O)N[C@@H](CCC(N)=O)C(=O)N[C@@H](CC(C)C)C(=O)N[C@@H](CCSC)C(=O)N[C@@H](Cc1cnc[nH]1)C(=O)N[C@@H](CC(N)=O)C(=O)N[C@@H](CC(C)C)C(=O)NCC(=O)N[C@@H](CCCCN)C(=O)N[C@@H](Cc1cnc[nH]1)C(=O)N[C@@H](CC(C)C)C(=O)N[C@@H](CC(N)=O)C(=O)N[C@@H](CO)C(=O)N[C@@H](CCSC)C(=O)N[C@@H](CCC(=O)O)C(=O)N[C@@H](CCCN=C(N)N)C(=O)N[C@H](C(=O)N[C@@H](CCC(=O)O)C(=O)N[C@@H](Cc1c[nH]c2ccccc12)C(=O)N[C@@H](CC(C)C)C(=O)N[C@@H](CCCN=C(N)N)C(=O)N[C@@H](CCCCN)C(=O)N[C@@H](CCCCN)C(=O)N[C@@H](CC(C)C)C(=O)N[C@@H](CCC(N)=O)C(=O)N[C@@H](CC(=O)O)C(=O)N[C@H](C(=O)N[C@@H](Cc1cnc[nH]1)C(=O)N[C@@H](CC(N)=O)C(=O)N[C@@H](Cc1ccccc1)C(=O)O)C(C)C)C(C)C [teriparatide],tumour growth,[5],cause malignant tumour growth (osteogenic carcinoma)
"IFNγ: interferon gamma, stimulator of IDO-1",expression of TPH-1 in gut and bone,TPH-1,remains unaltered
same,mineralization (alizarin red staining),"[2]; IFNγ 100 ng/ml, one week of osteogenic differentiation, vs vehicle",higher levels of mineralization
same,IDO-1 gene expression,"IDO-1 gene expression [4]; IFNγ 100 nM, differentiating MSC in osteogenic media 7 days, vs untreated MSC and immune cells",12 fold
same,increase in IDO-1 expression,IDO-1 gene expression [4]; 14th day,13 fold
same,increase in IDO-1 expression,IDO-1 gene expression [4]; after 7 days,36 fold
same,TPH-1 gene expression,TPH-1 gene expression,high levels
same,GDS in the gut,gut derived serotonin,remains unaltered
same,serotonin concentrations in the supernatants,serotonin,No changes
same,levels of IDO-1 in gut and bone marrow,IDO-1 [6],higher levels of IDO-1
same,kynurenine/tryptophan ratio (tryptophan degradation),IDO-1 [7],higher kynurenine/tryptophan ratio
same,IDO-1 gene expression,IDO-1 gene expression [8],without affecting
